{
  "source": "the supplement of paper PMC10307832",
  "assay_in_all_cases": "relative viability (nuclei count vs DMSO), 5 days (fraction); higher = more cells survive",
  "key": {"Metformin + Pictilisib": {"compound": "CN(C)C(=N)NC(=N)N [Metformin] + CS(=O)(=O)N1CCN(Cc2cc3nc(-c4cccc5[nH]ncc45)nc(N4CCOCC4)c3s2)CC1 [Pictilisib] (partner 1 µM)", "outline": "(§1)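 Relative viability was taken as the ratio of nuclei in treated wells to nuclei in vehicle wells. Lung cancer cell lines in 1536-well plates received compounds by pin tool one day after seeding, either one drug alone or a fixed anchor-drug dose plus five library-drug doses (not always all listed) in √10 steps. Nuclei were counted on 4× images after 5 days of treatment, and values are medians of duplicate plates.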"}, "Apatinib + Phenformin": {"compound": "N#CC1(c2ccc(NC(=O)c3cccnc3NCc3ccncc3)cc2)CCCC1 [Apatinib] + N=C(N)NC(=N)NCCc1ccccc1 [Phenformin] (partner 250 µM)", "outline": "as §1"}, "Apatinib + Decitabine": {"compound": "N#CC1(c2ccc(NC(=O)c3cccnc3NCc3ccncc3)cc2)CCCC1 [Apatinib] + Nc1ncn([C@H]2C[C@H](O)[C@@H](CO)O2)c(=O)n1 [Decitabine] (partner 2 µM)", "outline": "as §1"}, "Apatinib + Luminespib": {"compound": "N#CC1(c2ccc(NC(=O)c3cccnc3NCc3ccncc3)cc2)CCCC1 [Apatinib] + CCNC(=O)c1noc(-c2cc(C(C)C)c(O)cc2O)c1-c1ccc(CN2CCOCC2)cc1 [Luminespib] (partner 0.01 µM)", "outline": "as §1"}},
  "data": [
    {"cell line": "NCI-H460", "values": [
      {"measurement": "relative viability", "setting": "Metformin + Pictilisib; first compound 31.62 µM", "result": 0.41},
      {"measurement": "relative viability", "setting": "Metformin + Pictilisib; first compound 100 µM", "result": 0.327},
      {"measurement": "relative viability", "setting": "Metformin + Pictilisib; first compound 316.23 µM", "result": 0.337},
      {"measurement": "relative viability", "setting": "Metformin + Pictilisib; first compound 1000 µM", "result": 0.401},
      {"measurement": "relative viability", "setting": "Apatinib + Phenformin; first compound 0.08 µM", "result": 0.494},
      {"measurement": "relative viability", "setting": "Apatinib + Phenformin; first compound 0.253 µM", "result": 0.479},
      {"measurement": "relative viability", "setting": "Apatinib + Phenformin; first compound 0.8 µM", "result": 0.489},
      {"measurement": "relative viability", "setting": "Apatinib + Phenformin; first compound 2.53 µM", "result": 0.39},
      {"measurement": "relative viability", "setting": "Apatinib + Phenformin; first compound 8 µM", "result": 0.385},
      {"measurement": "relative viability", "setting": "Apatinib + Decitabine; first compound 0.08 µM", "result": 0.497},
      {"measurement": "relative viability", "setting": "Apatinib + Decitabine; first compound 0.253 µM", "result": 0.457},
      {"measurement": "relative viability", "setting": "Apatinib + Decitabine; first compound 0.8 µM", "result": 0.43},
      {"measurement": "relative viability", "setting": "Apatinib + Decitabine; first compound 2.53 µM", "result": 0.447},
      {"measurement": "relative viability", "setting": "Apatinib + Decitabine; first compound 8 µM", "result": 0.477},
      {"measurement": "relative viability", "setting": "Apatinib + Luminespib; first compound 0.08 µM", "result": 0.0389},
      {"measurement": "relative viability", "setting": "Apatinib + Luminespib; first compound 0.253 µM", "result": 0.0355},
      {"measurement": "relative viability", "setting": "Apatinib + Luminespib; first compound 0.8 µM", "result": 0.0311},
      {"measurement": "relative viability", "setting": "Apatinib + Luminespib; first compound 2.53 µM", "result": 0.0328},
      {"measurement": "relative viability", "setting": "Apatinib + Luminespib; first compound 8 µM", "result": 0.0337}
    ]}
  ]
}
